According to paper PMC7311426, “An amphipathic peptide with antibiotic activity against multidrug-resistant Gram-negative bacteria” (Nature Communications, 2020):
Read-outs that look alike come from different tables or passages of the source. Residues, ends and D or L forms follow the SMILES beside them.

Assays:
[1] = tested on: C. albicans; assay: microbe, parasite or virus in culture
[2] = tested on: C. neoformans; assay: microbe, parasite or virus in culture
[3] = tested on: human erythrocytes (HRBC); assay type: cell-based
[4] = in vivo; details: for level at 4 h / level at 8 h / level at 0.5 h / level at 1 h / level at 3 h / level at 12 h: Cross species PK, concentration (Fig 6 source data)
Protocol: The studies were performed at Fidelta Ltd, Croatia (mice), under review by the institutional ethics committee (CARE-Zg), and Covance Laboratories UK and Muenster Germany (cynomolgus monkey and minipig) in accordance with the requirements of the Animals (Scientific Procedures) Act 1989 and a maintained local ethical review. All studies were contracted by Adenium Biotech ApS. Mice were housed in polysulfone cages with an acclimatization period of 7 days prior to experiments with air temperature maintained at 22 °C with 55% humidity and light–dark cycles of 12 h light. Cynomolgus monkeys of age range 4–7 years were selected, tested for health, acclimatized for 2 weeks, and housed in single-animal climate controlled stainless-steel cages with a minimum of 8 air changes per hour with air temperature at 19–25 °C and relative humidity 40–70%, and light–dark cycles of 12 h light. Minipigs of age range 4–6 months were selected, tested for health, acclimatized for 2 weeks, and housed in single-animal pens with 15–20 air changes per hour with air temperature at 22–26 °C with light–dark cycles of 12 h light.
Mouse, monkey, and minipig i.v. 2-h infusion: AA139 formulated in Ringer’s acetate was administered intravenously to CD1 mice, cynomolgus monkeys (Macaca fascicularis) and Göttingen A/S minipigs (Ellegaard Göttingen, Denmark) by continuous infusion over 2 h (minipig under anesthesia). Individual dose volumes were based on individual body weight. Blood samples were collected at 0.5, 1, 2, 3, 4, 8, 10, and 12 h after the start of the infusion (n = 6 mice, male and female combined; n = 2 monkeys, one male and one female; n = 2 minipigs, one male and one female). Bioanalytical analysis was performed by SPE followed by LC–MS/MS. The method was validated for an AA139 concentration range of 43.4–21,700 ng mL^−1. Pharmacokinetic parameters were calculated by standard non-compartmental analysis (NCA) using Phoenix WinNonlin version 6.2. The studies were conducted in compliance with Good Laboratory Practice (GLP) regulations.

[5] = tested on: E. coli K12 MG1655; assay: ATP release, BacTiter-Glo luminescence; assay type: cell-based, Escherichia coli; details: 60 min
Protocol: ATP was measured using the BacTiter-Glo^TM Microbial Cell Viability Assay (Promega) following the manufacturer’s instructions. The assay was performed for three biological replicates at 37 °C, with luminescence recorded using a Tecan Infinite M1000 Pro plate reader. The fold reduction of ATP was calculated as: Fold reduction ATP = 1 − (Ltreat − Lmedia/Lcontrol − Lmedia); where Ltreat is the luminescence of treated cells, Lmedia is the luminescence of CAMHB without cells, and Lcontrol is the luminescence of untreated cells. Resultant graphs show mean (n = 7) and std error for each data point, prepared in Prism 8. DMSO was included as a control as piperacillin was solubilized in DMSO, with final assay concentration of 2.5%.

[6] = Göttingen, minipig, in vivo, iv, minipig 2h i.v. infusion, replicate 1
[7] = Göttingen, minipig, in vivo, iv, minipig 2h i.v. infusion, replicate 2
[8] = both, Göttingen, minipig, in vivo, iv, 10 mg kg-1
[9] = both, cynomolgus monkey, in vivo, iv, 10 mg kg-1
[10] = cynomolgus monkey, in vivo, iv, monkey 2h i.v. infusion, replicate 1
[11] = cynomolgus monkey, in vivo, iv, monkey 2h i.v. infusion, replicate 2
[12] = cynomolgus monkey, in vivo, iv, monkey 2h i.v. infusion, replicate 3
[13] = cynomolgus monkey, in vivo, iv, monkey 2h i.v. infusion, replicate 4

## CC(C)[C@@H]1NC(=O)[C@H](Cc2ccc(O)cc2)NC(=O)[C@H](Cc2c[nH]c3ccccc23)NC(=O)[C@@H](NC(=O)[C@H](Cc2ccccc2)NC(=O)CN)CSSC[C@@H](C(=O)N[C@@H](CC(N)=O)C(=O)O)NC(=O)[C@H](CCCNC(=N)N)NC(=O)[C@H](CCCNC(=N)N)NC(=O)[C@H](Cc2ccc(O)cc2)NC(=O)[C@@H]2CSSC[C@H](NC1=O)C(=O)N[C@@H](C)C(=O)N[C@@H](CCCNC(=N)N)C(=O)N[C@@H](CCCNC(=N)N)C(=O)N[C@@H](CC(N)=O)C(=O)NCC(=O)N[C@@H](C)C(=O)N[C@@H](CCCNC(=N)N)C(=O)N[C@@H](C(C)C)C(=O)N2 [AA139] (HELM PEPTIDE1{G.F.C.W.Y.V.C.A.R.R.N.G.A.R.V.C.Y.R.R.C.N}$PEPTIDE1,PEPTIDE1,3:R3-20:R3|PEPTIDE1,PEPTIDE1,7:R3-16:R3$$$V2.0)
[1]
  BMD MIC: ≥32 µg/mL
[1]; 24 h
  BMD MIC: 64 µg/mL
[2]
  BMD MIC: 1 µg/mL
  MIC against Cryptococcus neoformans: 1 to 4 µg/mL
[3]
  Heamolysis HC10, Mean: >300 µg/mL
[3]; red cells of human, 3 h
  Heamolysis HC10: >300 µg/mL
[4]; [6]
  level at 4 h: 2850 ng/mL
  level at 8 h: 1510 ng/mL
[4]; [7]
  level at 4 h: 3110 ng/mL
  level at 8 h: 1240 ng/mL
[4]; [8]
  Vd: 1.2 L/kg
  half-life: 3.1 h
[4]; both, Göttingen, minipig, in vivo, iv, minipig 2h i.v. infusion, time 0.5 h, replicate 1
  level at 0.5 h: 4830 ng/mL
[4]; both, Göttingen, minipig, in vivo, iv, minipig 2h i.v. infusion, time 1 h, replicate 2
  level at 1 h: 6780 ng/mL
[4]; both, Göttingen, minipig, in vivo, iv, minipig 2h i.v. infusion, replicate 1
  level at 3 h: 4100 ng/mL
[4]; both, Göttingen, minipig, in vivo, iv, minipig 2h i.v. infusion, replicate 2
  level at 3 h: 5080 ng/mL
[4]; [9]
  AUC(0-inf): 40800 ng·h/mL
  Vd: 0.87 L/kg
  half-life: 2.4 h
[4]; both, cynomolgus monkey, in vivo, iv, monkey 2h i.v. infusion, time 0.5 h, replicate 2
  level at 0.5 h: 6540 ng/mL
[4]; both, cynomolgus monkey, in vivo, iv, monkey 2h i.v. infusion, time 0.5 h, replicate 3
  level at 0.5 h: 7630 ng/mL
[4]; both, cynomolgus monkey, in vivo, iv, monkey 2h i.v. infusion, time 0.5 h, replicate 4
  level at 0.5 h: 13500 ng/mL
[4]; both, cynomolgus monkey, in vivo, iv, monkey 2h i.v. infusion, time 1 h, replicate 1
  level at 1 h: 9000 ng/mL
[4]; both, cynomolgus monkey, in vivo, iv, monkey 2h i.v. infusion, time 1 h, replicate 2
  level at 1 h: 9340 ng/mL
[4]; both, cynomolgus monkey, in vivo, iv, monkey 2h i.v. infusion, time 1 h, replicate 3
  level at 1 h: 8480 ng/mL
[4]; both, cynomolgus monkey, in vivo, iv, monkey 2h i.v. infusion, replicate 1
  level at 3 h: 5390 ng/mL
[4]; both, cynomolgus monkey, in vivo, iv, monkey 2h i.v. infusion, replicate 2
  level at 3 h: 5440 ng/mL
[4]; both, cynomolgus monkey, in vivo, iv, monkey 2h i.v. infusion, replicate 3
  level at 3 h: 4440 ng/mL
[4]; both, cynomolgus monkey, in vivo, iv, monkey 2h i.v. infusion, replicate 4
  level at 3 h: 6120 ng/mL
[4]; [10]
  level at 4 h: 3590 ng/mL
  level at 8 h: 1270 ng/mL
[4]; [11]
  level at 4 h: 3930 ng/mL
  level at 8 h: 1290 ng/mL
[4]; [12]
  level at 4 h: 2240 ng/mL
  level at 8 h: 2720 ng/mL
  level at 12 h: 860 ng/mL
[4]; [13]
  level at 4 h: 2830 ng/mL
  level at 8 h: 2460 ng/mL
  level at 12 h: 802 ng/mL
[4]; minipig 2h i.v. infusion, time 0.5 h, replicate 2
  Cross species PK, concentration (Fig 6 source data): 6298
[4]; minipig 2h i.v. infusion, time 1 h, replicate 1
  Cross species PK, concentration (Fig 6 source data): 4846
[4]; minipig 2h i.v. infusion, time 2 h, replicate 1
  Cross species PK, concentration (Fig 6 source data): 7751
[4]; minipig 2h i.v. infusion, time 2 h, replicate 2
  Cross species PK, concentration (Fig 6 source data): 9612
[4]; monkey 2h i.v. infusion, time 0.5 h, replicate 1
  Cross species PK, concentration (Fig 6 source data): 6780
[4]; monkey 2h i.v. infusion, time 1 h, replicate 4
  Cross species PK, concentration (Fig 6 source data): 15900
[4]; monkey 2h i.v. infusion, time 2 h, replicate 1
  Cross species PK, concentration (Fig 6 source data): 8610
[4]; monkey 2h i.v. infusion, time 2 h, replicate 2
  Cross species PK, concentration (Fig 6 source data): 11100
[4]; monkey 2h i.v. infusion, time 2 h, replicate 3
  Cross species PK, concentration (Fig 6 source data): 21300
[4]; monkey 2h i.v. infusion, time 2 h, replicate 4
  Cross species PK, concentration (Fig 6 source data): 6780

## colistin
[5]
  Concentration at which maximum ATP release is reached: at its MIC
